Results published in paper PMC8161015, “Antiplatelet Activity of Coumarins: In Vitro Assays on COX-1” (Molecules, 2021).

Target: T1, COX-1 (Homo sapiens, UniProt P23219)
T1 construct: gene PTGS1; pure human recombinant enzyme (h-COX-1)
Test: colorimetric TMPD oxidation assay with purified human COX-1, arachidonic acid substrate
Format: biochemical

T1 sequence (P23219 24-599): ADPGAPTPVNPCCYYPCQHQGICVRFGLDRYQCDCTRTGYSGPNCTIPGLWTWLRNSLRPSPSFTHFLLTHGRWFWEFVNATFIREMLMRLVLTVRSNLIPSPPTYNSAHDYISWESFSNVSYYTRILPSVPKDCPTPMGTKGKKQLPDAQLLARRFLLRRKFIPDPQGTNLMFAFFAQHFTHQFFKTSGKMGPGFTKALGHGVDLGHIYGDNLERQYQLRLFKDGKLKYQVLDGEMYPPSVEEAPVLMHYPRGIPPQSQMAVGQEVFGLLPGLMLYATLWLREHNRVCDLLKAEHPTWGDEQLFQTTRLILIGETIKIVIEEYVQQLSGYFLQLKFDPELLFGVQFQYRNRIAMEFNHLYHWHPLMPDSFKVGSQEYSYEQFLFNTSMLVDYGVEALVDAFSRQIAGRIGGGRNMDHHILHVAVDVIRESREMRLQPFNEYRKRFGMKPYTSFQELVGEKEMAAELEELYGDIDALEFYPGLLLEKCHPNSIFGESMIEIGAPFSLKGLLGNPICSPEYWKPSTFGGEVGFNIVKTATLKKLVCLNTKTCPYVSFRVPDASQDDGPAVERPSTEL

Compound `O=c1ccc2cc(O[C@@H]3O[C@H](CO)[C@@H](O)[C@H](O)[C@H]3O)c(O)cc2o1` [a, 7-hydroxy-6-[(2 S, 3 R, 4 S, 5 S, 6 R)-3,4,5-trihydroxy-6-(hydroxymethyl)oxane-2-yl] oxychromen-2-one] has an IC50 of 4.49 mM.
